Data reported in patent US20040043940A1, “Use of ectoin or ectoin derivatives for protecting stress proteins in the skin” (priority 2000, published 2004).

System: HSP 72/73
Test: Heat-shock induction of HSP 72/73 stress proteins in primary human keratinocytes (immunofluorescence)
Assay type: cell-based
Method: This was ascertained by spreading primary human keratinocytes on microscopic slides and cultivating them over a period of 3 days at 37° C. in KGM 2 medium (Cell Systems). The human keratinocytes were incubated to a confluence of approximately 60% and part of the culture was then treated with 1% ectoin based on the supernatant of the culture medium. The untreated portion of the culture served as control. Following treatment, the human keratinocytes were incubated for a further 16 hours at 37° C. The cultures were then subjected to heat shock by raising the temperature quickly from 37° C. to 44° C. The experiments were carried out by the method proposed by Holland et al in J. Invest Dermatol. (1993), 101: 196-199. Following this heat-shock treatment, incubation was carried out at 37° C. for a further 2 hours. The cells were then fixed. Fixing was carried out in 3 stages:
fixing solution A (1% CH3COOH/40% ethanol in deionized water v/v, 4° C.), 5 min,
fixing solution B (96% ethanol in deionized water v/v, 4° C.), 5 min,
fixing solution A, 5 min.
The stress proteins produced were stained by immunofluorescence, which process involved the following steps:
blockage of non-specific bonding sites with a blocking agent (10% BSA in phosphate buffer): 45 min, 37° C.,
incubation with the primary antibody anti HSP 72/73 (1:200 dilution in phosphate buffer): 45 min, 37° C.,
incubation with the FITC-conjugated secondary antibody goat anti mouse (1:200 dilution in phosphate buffer): 45 min, 37° C.,
covering of the specimens with fluorescent covering medium and slide cover glasses.
The stess proteins were determined quantitatively as HSP 72/73 under a microscope (BX40, filter: WB, burner: U-RFL-T, Olympus).

SMILES: CC1=N[C@H](C(=O)O)CCN1 [ectoin, (S)-1,4,5,6-tetrahydro-2-methyl-4-pyrimidinecarboxylic acid]
- protection of human skin cells against stress factors (in vitro, ectoin-treated versus untreated skin cells): significantly better
- induction of HSP 72/73 stress proteins (primary human keratinocytes, 1% ectoin pretreatment 16 hours, heat shock 37° C. to 44° C., compared with untreated cultures): significantly faster
- period until HSP 72/73 concentration maximum (primary human keratinocytes, 1% ectoin pretreatment, heat shock 44° C., untreated cells 60 minutes): 30 min
